The values below come from PMC7181201, “Dual P-Glycoprotein and CA XII Inhibitors: A New Strategy to Reverse the P-gp Mediated Multidrug Resistance (MDR) in Cancer Cells” (Molecules, 2020).

Each structure is given as a SMILES string. Values joined by “and” are separate entries in the source; they are usually repeats but may differ in a detail not shown here. Equal entries are not always repeated.

Series [1] has as its target T1, P-gp (Homo sapiens, UniProt P08183).
T1 construct: doxorubicin resistant K562/DOX cell line overexpresses almost exclusively the transporter membrane protein P-gp; endogenous in cells; host or cells: K562/DOX (doxorubicin-selected human erythroleukemia cells)
The series is described as follows: Rhodamine-123 uptake test on K562/DOX cells (flow cytometry). The format is cell-based. How it is done:
The results were expressed as the FR (fluorescence ratio), which is the ratio between the average fluorescence intensity of rhodamine in the presence and in the absence of modulators. Value 1 was attributed to the average fluorescence intensity of the samples exposed only to rhodamine.
(§1) An aliquot of cells (control) was incubated with the fluorochrome in the absence of inhibitors.
(§2) At the end of the uptake, cells were sedimented, washed twice in ice-cold PBS, placed in PBS on ice, and kept in the dark until flow cytometric analysis.
(§3) The histograms were generated by program GraphPad Prism 5 (GraphPad Prism software, Inc., San Diego, CA, USA); the data were obtained from the ratio between the average fluorescence intensity of the samples preincubated with the compounds under study and subsequently exposed to rhodamine, and the fluorescence of the sample exposed only to the rhodamine.

In series [2] the target is T1, P-gp. In words: Rhodamine-123 uptake test on LoVo/DOX cells (flow cytometry). The format is cell-based. To be noted: compound 10 µM. How it is done: The selected compounds were preliminary studied at 3, 10 and 30 µM concentrations by the MTT (3-(4,5-dimethylthiazolyl-2)-2,5-diphenyltetrazolium bromide) assay to evaluate their intrinsic cytotoxicity on LoVo/DOX cell line.
as §1, §2, §3

The next series has as its target T2, hCA I (Homo sapiens, UniProt P00915).
T2 construct: made in house
In words: Stopped-flow CO2 hydrase assay, hCA I. It counts as biochemical. To be noted: mean from 3 assays. How it is done:
(§4) An SX.18MV-R Applied Photophysics (Oxford, UK) stopped-flow instrument was used to assay the catalytic/inhibition of various CA isozymes. […] Saturated CO2 solutions in water at 25 °C were used as a substrate. Stock solutions of inhibitors were prepared at a concentration of 10 μM (in DMSO-water 1:1, v/v) and dilutions up to 0.01 nM done with the assay buffer mentioned above. […] Inhibitor and enzyme solutions were preincubated together for 10 min at room temperature prior to the assay, in order to allow for the formation of the E–I complex. […] The inhibition constants were obtained by non-linear least-squares methods using the Cheng–Prusoff equation, as reported earlier, and represent the mean from at least three different determinations. All CA isozymes used here were recombinant proteins obtained as reported earlier by our group.

In a further series the target is T3, hCA II (Homo sapiens, UniProt P00918).
T3 construct: made in house
The series is described as follows: Stopped-flow CO2 hydrase assay, hCA II. To be noted: for Ki: stopped flow, mean from 3 assays; for hCA II vs. hCA XII preference: ratio of Ki values. It counts as biochemical. How it is done:
as §4

In another series the target is T4, hCA IX (Homo sapiens, UniProt Q16790).
T4 construct: made in house
In words: Stopped-flow CO2 hydrase assay, hCA IX. It counts as biochemical. The note with it: for Ki: stopped flow, mean from 3 assays; for more potent on hCA IX than on hCA XII: ratio of Ki values. How it is done:
as §4

Another series addresses T5, hCA XII (Homo sapiens, UniProt O43570).
T5 construct: made in house
In words: Stopped-flow CO2 hydrase assay, hCA XII. It counts as biochemical. To be noted: stopped flow, mean from 3 assays. How it is done:
as §4

In a further series the test system is K562/DOX cells. The series is described as follows: Enhancement of doxorubicin cytotoxicity on K562/DOX cells (MTT). It counts as cell-based, human. To be noted: 72 h. How it is done:
(§5) To evaluate the enhancement of doxorubicin toxicity in the presence of the tested compounds, the cells, in exponential growth phase, were seeded at 10^4 cells/well and solutions of either compounds or doxorubicin, or a solution of doxorubicin in combination with the compounds, were added to the wells repeated in quadruplicate. […] The MTT working solution was then added and plates were further incubated for 3 h. Following incubation cells and formazan crystals were inspected microscopically. The supernatant was then carefully removed by slow aspiration and the formazan crystals were dissolved in […] of acidified isopropanol solution. The absorbance of the solution was then read on an automated plate reader at a wavelength of 570 nm. The increase in the toxicity of doxorubicin was quantified by the ratio between the growth of the cell sample treated with IC20 of doxorubicin and that of the cell sample treated with IC20 of doxorubicin in combination with the various concentrations of the tested compounds.

Another series concerns LoVo/DOX cells. The series is described as follows: Enhancement of doxorubicin cytotoxicity on LoVo/DOX cells (MTT). It counts as cell-based, human. The note with it: 72 h. How it is done:
as §5

The mark [3] stands for this setting: doxorubicin 0.5 µM (IC20) + compound 3 µM.
[4] abbreviates: doxorubicin 0.5 µM (IC20) + compound 10 µM.
The mark [5] stands for this setting: doxorubicin 0.3 µM (IC20) + compound 3 µM.
The mark [6] stands for this setting: doxorubicin 0.3 µM (IC20) + compound 10 µM.

T2 sequence (P00915 whole entry): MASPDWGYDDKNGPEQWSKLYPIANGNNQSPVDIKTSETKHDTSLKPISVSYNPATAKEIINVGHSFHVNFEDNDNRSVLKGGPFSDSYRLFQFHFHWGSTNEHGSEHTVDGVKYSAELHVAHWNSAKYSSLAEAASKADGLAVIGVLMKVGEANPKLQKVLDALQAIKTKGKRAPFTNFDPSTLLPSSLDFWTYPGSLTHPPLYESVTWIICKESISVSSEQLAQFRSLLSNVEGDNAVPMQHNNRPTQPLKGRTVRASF
T1 sequence (P08183 whole entry): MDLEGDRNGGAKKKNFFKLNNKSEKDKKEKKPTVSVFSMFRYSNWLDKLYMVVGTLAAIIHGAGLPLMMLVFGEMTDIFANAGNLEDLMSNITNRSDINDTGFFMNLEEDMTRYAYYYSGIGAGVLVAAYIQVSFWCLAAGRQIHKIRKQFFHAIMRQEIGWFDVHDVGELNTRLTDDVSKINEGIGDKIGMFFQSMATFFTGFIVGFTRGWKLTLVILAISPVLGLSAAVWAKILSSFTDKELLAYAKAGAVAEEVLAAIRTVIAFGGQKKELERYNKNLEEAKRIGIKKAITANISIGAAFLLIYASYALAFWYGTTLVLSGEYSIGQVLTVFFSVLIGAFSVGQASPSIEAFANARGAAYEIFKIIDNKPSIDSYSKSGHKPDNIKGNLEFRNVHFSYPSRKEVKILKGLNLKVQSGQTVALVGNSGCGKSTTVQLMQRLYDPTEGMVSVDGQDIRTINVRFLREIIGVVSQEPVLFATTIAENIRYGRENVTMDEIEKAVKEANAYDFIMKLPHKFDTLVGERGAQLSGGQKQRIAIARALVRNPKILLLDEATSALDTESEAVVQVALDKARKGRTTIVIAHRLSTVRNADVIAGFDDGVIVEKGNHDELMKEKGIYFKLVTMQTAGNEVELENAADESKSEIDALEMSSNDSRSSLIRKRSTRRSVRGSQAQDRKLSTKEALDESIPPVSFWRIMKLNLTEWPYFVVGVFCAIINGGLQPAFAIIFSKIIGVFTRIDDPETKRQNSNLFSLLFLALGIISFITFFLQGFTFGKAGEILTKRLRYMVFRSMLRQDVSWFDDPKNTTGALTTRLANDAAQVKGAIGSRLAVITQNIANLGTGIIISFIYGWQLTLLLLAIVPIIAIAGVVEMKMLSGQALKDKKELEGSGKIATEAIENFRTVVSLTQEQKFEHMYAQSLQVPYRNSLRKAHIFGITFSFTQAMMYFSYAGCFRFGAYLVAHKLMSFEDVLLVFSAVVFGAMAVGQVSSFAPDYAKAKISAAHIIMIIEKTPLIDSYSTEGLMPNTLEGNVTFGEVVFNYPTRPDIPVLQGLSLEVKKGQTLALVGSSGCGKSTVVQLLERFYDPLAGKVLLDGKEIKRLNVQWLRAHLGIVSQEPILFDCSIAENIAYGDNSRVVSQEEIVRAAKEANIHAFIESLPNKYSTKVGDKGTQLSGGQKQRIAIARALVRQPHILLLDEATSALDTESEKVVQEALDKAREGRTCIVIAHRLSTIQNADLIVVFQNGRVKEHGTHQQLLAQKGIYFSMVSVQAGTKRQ
T5 sequence (O43570 25-354): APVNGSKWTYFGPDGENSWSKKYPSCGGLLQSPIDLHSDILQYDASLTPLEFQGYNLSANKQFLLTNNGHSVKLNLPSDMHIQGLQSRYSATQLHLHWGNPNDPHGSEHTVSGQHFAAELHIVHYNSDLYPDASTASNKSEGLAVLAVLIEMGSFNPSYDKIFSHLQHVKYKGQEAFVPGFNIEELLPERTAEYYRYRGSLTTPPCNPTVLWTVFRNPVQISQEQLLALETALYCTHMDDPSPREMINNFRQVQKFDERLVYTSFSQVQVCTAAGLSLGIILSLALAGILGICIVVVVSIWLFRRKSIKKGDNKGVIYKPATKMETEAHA

In the case of `COc1cc(/C=C/C(=O)OCCCN(C)CCCCCOC(=O)COc2ccc3ccc(=O)oc3c2)cc(OC)c1OC` [Compound 2, (E)-3-(methyl(5-(2-((2-oxo-2H-chromen-7-yl)oxy)acetoxy)pentyl)amino)propyl 3-(3,4,5-trimethoxyphenyl)acrylate], the “FR (fluorescence ratio, Rhd 123 uptake with/without modulator)” value is recorded as 1.57 at P-gp [1] (compound 3 µM) and 5.81 at P-gp [1] (compound 30 µM). Further, at P-gp [2], the “FR (fluorescence ratio, Rhd 123 uptake)” value is reported as 10.50. Moreover, the Ki on hCA I was more than 10000 nM; on hCA II it was more than 10000 nM; at hCA IX it was 47.4 nM; at hCA XII, 8.9 nM. In addition, the “Cell Growth (%)” value in the series on K562/DOX cells (setting [3]) is 85.6 ± 4.7%; in the series on K562/DOX cells (setting [4]), 65.0 ± 5.2%; with LoVo/DOX cells (setting [5]) it was 82.7 ± 10.2%; in the series with LoVo/DOX cells (setting [6]), 41.5% and 41.5 ± 7.3%.

Take `COc1cc(/C=C/C(=O)OCCCCCCN(C)CCCOC(=O)COc2ccc3ccc(=O)oc3c2)cc(OC)c1OC` [Compound 5, (E)-6-(methyl(3-(2-((2-oxo-2H-chromen-7-yl)oxy)acetoxy)propyl)amino)hexyl 3-(3,4,5-trimethoxyphenyl)acrylate]: the “FR (fluorescence ratio, Rhd 123 uptake with/without modulator)” value at P-gp [1] (compound 3 µM) was 3.67; on P-gp [1] (compound 30 µM), 5.85. Further, the “FR (fluorescence ratio, Rhd 123 uptake)” value on P-gp [2] was determined as 6.30. Moreover, the Ki on hCA I was more than 10000 nM; on hCA II, more than 10000 nM; on hCA IX, 26.7 nM; on hCA XII, 6.4 nM. Further, the “Cell Growth (%)” value is 51.7% and 51.7 ± 3.0% with K562/DOX cells (setting [3]); 58.0% and 58.0 ± 2.4% with LoVo/DOX cells (setting [5]); 51.0% and 51.0 ± 1.9% in the series with LoVo/DOX cells (setting [6]).

As for `COc1cc(/C=C/C(=O)OCCCCCCCN(C)CCOC(=O)COc2ccc3ccc(=O)oc3c2)cc(OC)c1OC` [Compound 7, (E)-7-(methyl(2-(2-((2-oxo-2H-chromen-7-yl)oxy)acetoxy)ethyl)amino)heptyl 3-(3,4,5-trimethoxyphenyl)acrylate], the “FR (fluorescence ratio, Rhd 123 uptake with/without modulator)” value at P-gp [1] (compound 3 µM) turned out to be 2.08; at P-gp [1] (compound 30 µM) it was 4.48. In addition, on P-gp [2], the “FR (fluorescence ratio, Rhd 123 uptake)” value is on record as 12.60. In addition, the Ki was more than 10000 nM at hCA I, more than 10000 nM at hCA II, 29.7 nM on hCA IX and 9.1 nM at hCA XII. Moreover, the “Cell Growth (%)” value with K562/DOX cells (setting [3]) is 78.1 ± 4.9%; in the series with LoVo/DOX cells (setting [5]), 61.0% and 61.0 ± 3.3%; in the series on LoVo/DOX cells (setting [6]), 34.9% and 34.9 ± 8.1%.

As for `COc1cc(/C=C/C(=O)OCCCCCCCN(C)CCCCCCCOC(=O)COc2ccc3ccc(=O)oc3c2)cc(OC)c1OC` [Compound 8, (E)-7-(methyl(7-(2-((2-oxo-2H-chromen-7-yl)oxy)acetoxy)heptyl)amino)heptyl 3-(3,4,5-trimethoxyphenyl)acrylate], the entries for the “FR (fluorescence ratio, Rhd 123 uptake with/without modulator)” value at P-gp [1] (compound 3 µM) and at P-gp [1] (compound 30 µM) were 2.33 and 4.15, respectively. The “FR (fluorescence ratio, Rhd 123 uptake)” value at P-gp [2] was 9.90. For the same compound, the Ki at hCA I was more than 10000 nM; on hCA II, more than 10000 nM; on hCA IX it was 24.2 nM; at hCA XII it was 7.1 nM. Moreover, the “Cell Growth (%)” value with K562/DOX cells (setting [3]) was 82.0 ± 5.9%; with LoVo/DOX cells (setting [5]), 68.0% and 68.0 ± 2.9%; in the series with LoVo/DOX cells (setting [6]), 32.2% and 32.2 ± 10.7%.

For `COc1cc(/C=C/C(=O)OCCCCCCN(C)CCCCOC(=O)c2ccc(S(N)(=O)=O)cc2)cc(OC)c1OC` [Compound 20, (E)-4-(methyl(6-((3-(3,4,5-trimethoxyphenyl)acryloyl)oxy)hexyl)amino)butyl 4-sulfamoyl benzoate], the results for the “FR (fluorescence ratio, Rhd 123 uptake with/without modulator)” value on P-gp [1] (compound 3 µM) and on P-gp [1] (compound 30 µM) were 1.01 and 2.58, respectively. The Ki at hCA I was 84.5 nM; on hCA II it was 14 nM; on hCA IX, 33.9 nM; at hCA XII, 41.7 nM. Further, on hCA II, the “hCA II vs. hCA XII preference” value was found to be 3 times.

Take `COc1cc(/C=C/C(=O)OCCCCCCCN(C)CCCCCCCOC(=O)c2ccc(S(N)(=O)=O)cc2)cc(OC)c1OC` [Compound 22, (E)-7-(methyl(7-((3-(3,4,5-trimethoxyphenyl)acryloyl)oxy)heptyl)amino)heptyl 4-sulfamoyl benzoate]: the “FR (fluorescence ratio, Rhd 123 uptake with/without modulator)” value at P-gp [1] (compound 3 µM) was determined as 2.85; at P-gp [1] (compound 30 µM) it was 3.20. The inhibitory constant (Ki) at hCA I was determined as 73.7 nM; on hCA II, 445 nM; at hCA IX, 172 nM; on hCA XII, 96.7 nM.

On to `COc1cc(C(=O)OCCCN(C)CCCCCOC(=O)c2ccc(S(N)(=O)=O)cc2)cc(OC)c1OC` [Compound 23, 3-(methyl(5-((4-sulfamoylbenzoyl)oxy)pentyl)amino)propyl 3,4,5-trimethoxybenzoate], for which the “FR (fluorescence ratio, Rhd 123 uptake with/without modulator)” value on P-gp [1] (compound 3 µM) was found to be 1.00; on P-gp [1] (compound 30 µM), 1.66. Besides, the Ki worked out at 284 nM at hCA I, 128 nM on hCA II, 26.6 nM on hCA IX and 63.7 nM on hCA XII. At hCA IX, the “more potent on hCA IX than on hCA XII” value is reported as “twice”.

In the case of `COc1cc(C(=O)OCCCCCCN(C)CCCOC(=O)c2ccc(S(N)(=O)=O)cc2)cc(OC)c1OC` [Compound 24, 6-(methyl(3-((4-sulfamoylbenzoyl)oxy)propyl)amino)hexyl 3,4,5-trimethoxybenzoate], the “FR (fluorescence ratio, Rhd 123 uptake with/without modulator)” value is 1.42 on P-gp [1] (compound 3 µM) and 2.88 at P-gp [1] (compound 30 µM). In addition, the Ki was found to be 83.5 nM at hCA I, 8.9 nM on hCA II, 25.3 nM on hCA IX and 57.6 nM on hCA XII. Further, at hCA II, the “hCA II vs. hCA XII preference” value came out at 6.5 times. At hCA IX, the “more potent on hCA IX than on hCA XII” value is on record as “twice”.

With `CN(CCCCCCOC(=O)c1c2ccccc2cc2ccccc12)CCCOC(=O)c1ccc(S(N)(=O)=O)cc1` [Compound 27, 6-(methyl(3-((4-sulfamoylbenzoyl)oxy)propyl)amino)hexyl anthracene-9-carboxylate], the “FR (fluorescence ratio, Rhd 123 uptake with/without modulator)” value on P-gp [1] (compound 3 µM) was determined as 1.08; at P-gp [1] (compound 30 µM), 2.03. Besides, the Ki on hCA I turned out to be 617 nM; at hCA II, 422 nM; on hCA IX, 28.2 nM; at hCA XII, 31.3 nM.

`CN(CCCCCCCOC(=O)c1c2ccccc2cc2ccccc12)CCOC(=O)c1ccc(S(N)(=O)=O)cc1` [Compound 28, 7-(methyl(2-((4-sulfamoylbenzoyl)oxy)ethyl)amino)heptyl anthracene-9-carboxylate]: the “FR (fluorescence ratio, Rhd 123 uptake with/without modulator)” value on P-gp [1] (compound 3 µM) worked out at 1.45; at P-gp [1] (compound 30 µM), 4.25. The Ki at hCA I stood at 238 nM; on hCA II, 475 nM; on hCA IX it was 20.6 nM; at hCA XII, 23.5 nM.

On to `COc1ccc(CCN(C)CCCC(C#N)(c2ccc(OC)c(OC)c2)C(C)C)cc1OC` (centres unmarked) [Ver, verapamil, reference compound], for which the “Cell Growth (%)” value was found to be 69.0 ± 0.03% in the series with K562/DOX cells (setting [3]); 62.0 ± 0.1% in the series with K562/DOX cells (setting [4]); 54.0 ± 0.06% in the series on LoVo/DOX cells (setting [5]); 51.0 ± 0.09% with LoVo/DOX cells (setting [6]); 51.0% with LoVo/DOX cells (doxorubicin 0.3 µM (IC20) + compound 10 µM, listed as verapamil).
